Columns and labels:
[1] = target: T1, phosphodiesterase 4B subtype (PDE4B) (Homo sapiens, UniProt Q07343); test: Inhibitory activity on PDE4B enzyme (fluorescence polarization); format: biochemical
T1 construct: amino acid 305 terminal; GST (N); made in house; host or cells: Sf9 insect cells (baculovirus)
Experimental: This biological experiment based on fluorescence polarization was used to determine AMP/GMP expression, that is, to show enzyme activity by tracking AMP/GMP antibody binding.
Experimental buffer solution: 10 mM Trihydroxymethyl aminomethane-hydrochloric acid buffer solution (Tris-HCl) (pH 7.5), 5 mM MgCl2, 0.01% Polyoxyethylene lauryl ether (Brij 35), 1 mM Dithiothreitol (DTT), and 1% DMSO.
Enzymes: Recombinant humanized PDE4B (Genebank Accession Number NM_002600; amino acid 305 terminal) was expressed with baculovirus in Sf9 insect cells using N-terminal GST tag. MW=78 kDa.
Enzyme substrate: 1 μM cAMP
Detection: Transcreener®AMP2/GMP2 antibody and AMP2/ GMP2 AlexaFluor633 tracing.
• 1. Dissolving the recombinant human PDE4B enzyme and enzyme substrate (1 μM cAMP) in freshly prepared experimental buffer; • 2. Transferring the above PDE4B enzyme buffer solution to reaction wells; • 3. Adding Compound 1 dissolved with 100% DMSO to the reaction well with PDE4B enzyme buffer solution via acoustic technology (echo 550 nanoliter range) and incubating for 10 min at room temperature; • 4. […] The range of fluorescence polarization determination is Ex/Em=620/688.
Data Analysis: The fluorescence polarization signal was converted into nM according to the AMP/GMP standard curve and the control % enzyme activity relative to the DMSO calculated by Excel software. […]

[2] = system: TNFα production in human peripheral blood mononuclear cells (hPBMC); test: Inhibition of LPS-induced TNFα production in hPBMC; format: cell-based
Experimental: The inhibitory activity of Compound 1 of lipopolysaccharide (LPS)-induced TNFα production in human peripheral blood mononuclear cells.
• 1. Collecting normal human whole blood, which was anticoagulated with EDTA-K2 anticoagulation tube; • 2. Separating PBMC with Ficoll density gradient centrifugation, counting and adjusting the cell concentration to 2×10^6/mL; • 3. To U-bottom 96-well plate were added 2×10^5 cells/well, LPS 1 ng/mL was added, various concentrations of compound at 100 μM, 10 μM, 1 μM, 100 nM, 10 nM, 1 nM, 100 pM, 10 pM, 200 μl system/well, in duplicated wells; • 4. Incubating for 24 h, collecting the supernatant; • 5. Detecting the level of TNFα in supernatant with ELISA, fitting the inhibition curve and calculating IC50 with Graphpad Prism software.

[3] = system: collagen-induced arthritis in mice; test: In vivo CIA model (collagen-induced arthritis); design: species or system DBA/1 mice; Average clinical symptom score: dose or concentration left out as unconfirmed; key to Total pathological score (both hind limbs): each of 4 joint-damage aspects scored 0-4, summed over both hind limbs; settings: for Total pathological score (both hind limbs): day 38, Mean±SEM
Source text: A series of symptoms similar to human psoriatic arthritis, such as redness and swelling of the joint, articular cartilage damage, and capsula articularis damage are elicited in the model by injection of type II collagen to activate reactivity of B cells, T cell on bone collagen, and the activated B cells and T cells enter the joints to cause joint inflammation. During pre-clinical evaluation of candidate compounds for treating psoriatic arthritis, collagen-induced arthritis in mice is often used to evaluate the effectiveness.
The purpose of this experiment was to study the therapeutic effect of Compound 1 on collagen-induced arthritis in mice, so as to provide preclinical pharmacodynamic relevant information for subsequent clinical studies.
1. Type II collagen/complete Freund's adjuvant immunization
Preparation of acetic acid: Diluting acetic acid to 100 mM, which was filtered with 0.22 um filter membrane and stored at 4° C.
Bovine type II collagen solution: Dissolving bovine type II collagen (CII) in acetic acid solution, which was stored at 4° C. overnight.
Preparation of emulsion: Mixing the CII solution stored overnight with equal volume of the complete Freund's adjuvant and homogenize the mixture with high-speed homogenizer until the solution formed a stable emulsion.
Preparation of lipopolysaccharide (LPS): Weighing LPS, adding normal saline, and mixing until a stable solution with concentration of […] was formed.
The mice were randomly assigned to different treatment groups. The day of the first immunization was recorded as day 0, and the subsequent days were marked sequentially.
After DBA/1 mice were anesthetized with isoflurane, the prepared collagen emulsion was injected subcutaneously in the tail.
On day 23, 100 μl of LPS solution was injected intraperitoneally.
On day 27, when the average clinical score reached about 1, 60 mice with moderate onset were selected, and they were re-randomized according to body weight and score, with 10 mice in each group.
Dexamethasone as positive control drug in 0.3 mg/kg dose group is commonly used in the CIA model. In addition, the relevant dose design of Compound 1 and the control compound Apremilast were determined according to the results of earlier preliminary experiments. Group 1 was normal mice without any treatment; Group 2 was vehicle control group and was administered vehicle; Group 3 was administered dexamethasone at a dose of 0.3 mg/kg; Group 4 was administered Apremilast at a dose of 5 mg/kg; Group 5, Group 6, and Group 7 were administered Compound 1 with doses of 0.3, 1, and 3 mg/kg, respectively. Administration was given once a day for 11 days in total. The volume of intragastric administration was 10 ml/kg.
Clinical observation: From 7 days before immunization to 23 days after immunization, the basic health status and body weight changes of DBA/1 mice were observed daily (recorded once a week). After the 23rd day, the health status, morbidity and body weight change of the mice were observed daily (recorded at least three times a week) until the end of the experiment.
Clinical score: After LPS injection, the morbidities of mice were observed every day. After the onset of disease in mice (clinical symptoms of arthritis), they were scored according to severity of conditions (redness and swelling, joint deformation) according to 0-4 point standard, with a maximum score of 4 for each limb, and a maximum score of 16 for each animal. At least three times of scoring were performed a week.
Pathology: On day 38, the mouse was euthanized. The two posterior limbs of the mouse were taken, soaked with 10% formalin solution, decalcified with formic acid solution, embedded with paraffin, sectioned, stained with hematoxylin-eosin (HE), and observed with photomicrography. The degree of joint damage was evaluated in four aspects: inflammatory cell infiltration, pannus formation, cartilage injury and bone resorption, and scored according to 0-4 score standard. […]

[4] = Mus musculus, po, 264 h, 0.3 mg/kg gavage once a day for 11 days, read-out: Inhibition rate of area under the clinical score curve (AUC) relative to vehicle control group

T1 sequence (Q07343 305-736 limits assumed): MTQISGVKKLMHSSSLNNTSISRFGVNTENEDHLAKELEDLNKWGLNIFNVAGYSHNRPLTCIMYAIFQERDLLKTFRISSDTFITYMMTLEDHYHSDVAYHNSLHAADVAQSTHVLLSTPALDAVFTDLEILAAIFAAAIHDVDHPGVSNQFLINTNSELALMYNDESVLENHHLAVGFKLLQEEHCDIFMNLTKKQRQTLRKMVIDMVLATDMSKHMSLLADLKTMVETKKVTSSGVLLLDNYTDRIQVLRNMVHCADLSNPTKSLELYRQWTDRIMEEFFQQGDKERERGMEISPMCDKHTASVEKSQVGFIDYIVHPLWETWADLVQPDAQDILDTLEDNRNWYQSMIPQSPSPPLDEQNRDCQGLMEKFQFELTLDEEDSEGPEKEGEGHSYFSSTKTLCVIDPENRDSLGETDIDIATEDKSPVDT

CCOc1cc([C@@H](CS(C)(=O)=O)n2c(=O)[nH]c3c(C)c(-c4ccccc4F)cnc32)ccc1OC [Compound 1]
In vitro activity of inhibiting PDE4B (conclusion) [1]: excellent in vitro activity
In vitro activity of inhibiting TNFα production in hPBMC (conclusion) [2]: excellent in vitro activity
IC50 ([2]; Homo sapiens, PBMC, LPS 1 ng/mL, 24 h, TNFα in supernatant by ELISA): 0.56 nM
Clinical average score ([3]; 0.3 mg/kg gavage once a day for 11 days, 37th day, p<0.0001 vs vehicle): 3.6
Arthritis pathology (conclusion) ([3]; 1 mg/kg and 3 mg/kg dose groups): significant improvement
Clinical average score ([3]; 1 mg/kg gavage once a day for 11 days, 37th day, p<0.001 vs vehicle): 4.3
Total pathological score (both hind limbs) ([3]; 1 mg/kg gavage once a day for 11 days, p<0.05 vs vehicle): 14.00±2.43
Clinical average score ([3]; 3 mg/kg gavage once a day for 11 days, 37th day, p<0.0001 vs vehicle): 3.5
Total pathological score (both hind limbs) ([3]; 3 mg/kg gavage once a day for 11 days, p<0.0001 vs vehicle): 9.20±1.83
Therapeutic effect (clinical score and arthritis pathological score) compared with Apremilast ([3]; Compound 1 at 3 mg/kg vs Apremilast at 5 mg/kg): better than that of Apremilast at 5 mg/kg
inhibition at 0.3 mg/kg [3, 4]: 43.9%
inhibition at 1 mg/kg ([3]; Mus musculus, po, 264 h, 1 mg/kg gavage once a day for 11 days, read-out: Inhibition rate of area under the clinical score curve (AUC) relative to vehicle control group): 39.4%
inhibition at 3 mg/kg ([3]; Mus musculus, po, 264 h, 3 mg/kg gavage once a day for 11 days, read-out: Inhibition rate of area under the clinical score curve (AUC) relative to vehicle control group): 51.7%
Symptoms of the collagen-induced arthritis (conclusion) ([3]; three dose groups of 0.3, 1 and 3 mg/kg): significantly improved

CCOc1cc([C@@H](CS(C)(=O)=O)N2C(=O)c3cccc(NC(C)=O)c3C2=O)ccc1OC [Apremilast, reference compound]
Decrease of average clinical symptom score compared to vehicle control group ([3]; 5 mg/kg gavage once a day for 11 days, 37th day, p<0.001): 3.7
Total pathological score (both hind limbs) ([3]; 5 mg/kg gavage once a day for 11 days, p<0.05 vs vehicle): 13.90±1.89
inhibition at 5 mg/kg ([3]; Mus musculus, po, 264 h, 5 mg/kg gavage once a day for 11 days, read-out: Inhibition rate of area under the clinical score curve (AUC) relative to vehicle control group): 41.3%
Average clinical symptom score ([3]; gavage once a day for 11 days, 37th day): 4.2

C[C@@H]1C[C@H]2[C@@H]3CCC4=CC(=O)C=C[C@]4(C)[C@@]3(F)[C@@H](O)C[C@]2(C)[C@@]1(O)C(=O)CO [Dexamethasone, reference compound]
Clinical score ([3]; 0.3 mg/kg gavage once a day, from the 30th day until the end of the experiment, p<0.0001 vs vehicle): 0
inhibition at 0.3 mg/kg [3, 4]: 96.4%

Reference: patent US11325907B2, “Crystal form of 1H-imidazo[4,5-b]pyridine-2(3H)-one compound and preparation process therefor” (MEDSHINE DISCOVERY INC., priority 2018, dated 2022)
